The text below walks through data of patent publication US20260274832A1, “COMPOUNDS AND THEIR USE IN TREATING CANCER” (ASTRAZENECA AB, priority 2023, published 2026).

For assay [1], the target named is T1, AR (L702H) in LNCaP cells (Homo sapiens, UniProt P10275, L702H/T878A).
T1 construct: engineered to introduce the mutation L702H into the AR gene using CRISPR/Cas9; endogenous in cells; host or cells: LNCaP cells edited by CRISPR/Cas9 at the AR gene
Description: LNCaP Androgen Receptor L702H Imaging Assay (LNCaP cells engineered by CRISPR/Cas9). The class given is cell-based. The conditions noted are these: LNCaP cells with AR L702H mutation, 24 h incubation; for DC50: concentration giving 50% of maximum degradation of AR (L702H) per curve fit; for Dmax: LNCaP, maximum degradation observed, normalized as % of positive control. A digest of the protocol: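 CRISPR-engineered LNCaP cells carrying AR L702H were treated 24 h at 37 °C with a 12-point compound dose response (0.3% DMSO), then fixed and immunostained for AR with DRAQ5 nuclear counterstain. Nuclear AR was quantified by imaging, normalized to positive control; DC50 and Dmax came from Hill or bell-shaped fits.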

Assay [2] has as its target T2, AR (AR-full length) in LNCaP cells (Homo sapiens, UniProt P10275, T878A).
T2 construct: the prostate cancer cell line LNCaP (expressing AR-full length); endogenous in cells; host or cells: LNCaP
Description: LNCaP Androgen Receptor Imaging Assay (immunofluorescence of endogenous nuclear AR). In kind it is cell-based. Conditions: 24 h incubation; for DC50: concentration giving 50% of maximum degradation of AR per curve fit, single experiment or average of two or more; for Dmax: LNCaP, maximum degradation observed, normalized as % of positive control (prior art AR PROTAC at 3 μM). The method, boiled down: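 LNCaP cells (12,000/well) received a 12-point compound dose series (0.3% DMSO) for 24 h at 37° C., then were PFA-fixed and stained for AR (AR441) and nuclei (DRAQ5). Nuclear AR was quantified by imaging, normalized to a 3 μM AR PROTAC control; DC50 and Dmax came from Hill/bell curve fits.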

By DC50 is commonly meant the concentration at which degradation of the target reaches its halfway point. For orientation: Dmax means the greatest extent of degradation seen.

T1 sequence (P10275 whole entry L702H/T878A): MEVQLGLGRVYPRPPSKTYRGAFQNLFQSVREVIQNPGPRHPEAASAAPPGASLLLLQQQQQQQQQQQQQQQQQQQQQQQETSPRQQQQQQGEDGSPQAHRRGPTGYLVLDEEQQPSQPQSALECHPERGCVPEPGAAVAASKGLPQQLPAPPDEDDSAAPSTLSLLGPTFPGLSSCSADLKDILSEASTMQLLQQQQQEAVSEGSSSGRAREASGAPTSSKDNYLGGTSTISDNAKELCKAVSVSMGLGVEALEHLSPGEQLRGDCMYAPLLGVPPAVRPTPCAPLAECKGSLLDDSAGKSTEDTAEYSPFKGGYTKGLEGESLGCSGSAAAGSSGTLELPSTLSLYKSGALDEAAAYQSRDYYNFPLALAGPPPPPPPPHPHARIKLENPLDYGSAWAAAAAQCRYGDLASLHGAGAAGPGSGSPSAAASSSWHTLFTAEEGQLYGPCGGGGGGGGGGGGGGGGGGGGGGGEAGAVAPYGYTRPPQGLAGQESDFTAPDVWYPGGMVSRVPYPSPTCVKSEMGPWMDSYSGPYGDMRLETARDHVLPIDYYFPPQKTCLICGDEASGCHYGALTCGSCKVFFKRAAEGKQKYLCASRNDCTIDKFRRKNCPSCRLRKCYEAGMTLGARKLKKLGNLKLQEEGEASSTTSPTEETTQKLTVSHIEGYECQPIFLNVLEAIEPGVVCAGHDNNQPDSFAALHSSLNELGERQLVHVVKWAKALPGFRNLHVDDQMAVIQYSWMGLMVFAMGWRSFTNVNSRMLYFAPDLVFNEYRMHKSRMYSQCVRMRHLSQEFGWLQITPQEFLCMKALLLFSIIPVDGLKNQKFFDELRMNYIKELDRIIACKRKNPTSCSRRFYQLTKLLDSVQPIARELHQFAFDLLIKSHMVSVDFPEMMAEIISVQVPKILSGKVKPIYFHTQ
T1 sequence (Q96SW2 whole entry partner): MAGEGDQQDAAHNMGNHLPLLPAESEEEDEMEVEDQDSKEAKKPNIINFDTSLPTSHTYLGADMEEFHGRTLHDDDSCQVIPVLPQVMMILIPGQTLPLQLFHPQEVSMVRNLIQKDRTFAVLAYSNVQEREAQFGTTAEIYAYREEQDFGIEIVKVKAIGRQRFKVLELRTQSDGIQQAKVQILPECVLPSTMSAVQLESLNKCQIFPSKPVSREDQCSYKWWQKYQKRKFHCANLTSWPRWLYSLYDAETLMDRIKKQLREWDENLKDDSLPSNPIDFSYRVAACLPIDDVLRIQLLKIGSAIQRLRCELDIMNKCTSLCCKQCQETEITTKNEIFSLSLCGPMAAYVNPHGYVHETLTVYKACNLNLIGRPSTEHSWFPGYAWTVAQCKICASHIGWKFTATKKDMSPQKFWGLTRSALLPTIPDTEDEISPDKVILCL
T2 sequence (P10275 whole entry T878A): as the sequence (P10275 whole entry L702H/T878A) above, with H702L counted along it
T2 sequence (Q96SW2 whole entry partner): as the sequence (Q96SW2 whole entry partner) above

`N#Cc1n[nH]c2c(N3CCC[C@@H](c4ccc(N5CCC(CN6CCN(c7ccc8c(c7)CN(C7CCC(=O)NC7=O)C8=O)CC6)CC5)cc4)C3)ccc(F)c12` (stereo partly drawn) [Example 133, 7-[(3S)-3-{4-[4-({4-[2-(2,6-Dioxopiperidin-3-yl)-1-oxo-2,3-dihydro-1H-isoindol-5-yl]piperazin-1-yl}methyl)piperidin-1-yl]phenyl}piperidin-1-yl]-4-fluoro-1H-indazole-3-carbonitrile]: in assay [1], the DC50 worked out at 8 nM and the Dmax turned out to be 97%. Besides, in assay [2], half-maximal degradation (DC50) was put at 4 nM and the Dmax was 103%.

Consider `N#Cc1n[nH]c2c(N3CCC[C@@H](c4ccc(N5CCC(CN6CCC(n7ccc8c(N9CCC(=O)NC9=O)cccc87)CC6)CC5)cc4)C3)ccc(F)c12` [Example 134, 7-[(3S)-3-{4-[4-({4-[4-(2,4-Dioxo-1,3-diazinan-1-yl)-1H-indol-1-yl]piperidin-1-yl}methyl)piperidin-1-yl]phenyl}piperidin-1-yl]-4-fluoro-1H-indazole-3-carbonitrile], for which, in assay [1], it took 22 nM to reach half-maximal degradation (DC50) and the Dmax amounted to 94%. For the same molecule, in assay [2], the DC50 worked out at 5 nM and the Dmax worked out at 106%.

On to `N#Cc1c[nH]c2c(N3CCC(c4ccc(N5CC6(CCC(CN7CCC(n8ccc9c(N%10CCC(=O)NC%10=O)cccc98)CC7)CC6)C5)cc4)CC3)ccc(F)c12` [Example 135, 7-(4-{4-[7-({4-[4-(2,4-Dioxo-1,3-diazinan-1-yl)-1H-indol-1-yl]piperidin-1-yl}methyl)-2-azaspiro[3.5]nonan-2-yl]phenyl}piperidin-1-yl)-4-fluoro-1H-indole-3-carbonitrile], for which, in assay [1], it took 81 nM to reach half-maximal degradation (DC50) and the Dmax came to 91%. In assay [2], the DC50 was 24 nM and the Dmax stood at 105%.

As to `Cn1c(C2CCN(CC3CCN(c4ccc([C@H]5CCCN(c6ccc(Cl)c7c(C#N)c[nH]c67)C5)cc4)CC3)CC2)cc2cc(F)c(N3CCC(=O)NC3=O)cc21` [Example 136, 4-Chloro-7-[(3R)-3-{4-[4-({4-[6-(2,4-dioxo-1,3-diazinan-1-yl)-5-fluoro-1-methyl-1H-indol-2-yl]piperidin-1-yl}methyl)piperidin-1-yl]phenyl}piperidin-1-yl]-1H-indole-3-carbonitrile], in assay [1], half-maximal degradation (DC50) was put at 14 nM and the Dmax came to 108%. In assay [2], the half-maximal degradation concentration (DC50) worked out at 10 nM and the Dmax turned out to be 104%.

Turning to `Cn1c(C2CCN(CC3CCN(c4ccc([C@@H]5CCCN(c6ccc(Cl)c7c(C#N)c[nH]c67)C5)cc4)CC3)CC2)cc2cc(F)c(N3CCC(=O)NC3=O)cc21` [Example 137, 4-Chloro-7-[(3S)-3-{4-[4-({4-[6-(2,4-dioxo-1,3-diazinan-1-yl)-5-fluoro-1-methyl-1H-indol-2-yl]piperidin-1-yl}methyl)piperidin-1-yl]phenyl}piperidin-1-yl]-1H-indole-3-carbonitrile], in assay [1], the half-maximal degradation concentration (DC50) stood at 20 nM and the Dmax was determined as 109%. For the same molecule, in assay [2], the DC50 is 10 nM and the Dmax worked out at 105%.

In the case of `Cn1c(C2CCN(CC3CCN(c4ccc([C@H]5CCCN(c6ccc(Cl)c7c(C#N)n[nH]c67)C5)cc4)CC3)CC2)cc2cc(F)c(N3CCC(=O)NC3=O)cc21` [Example 138, 4-Chloro-7-[(3R)-3-{4-[4-({4-[6-(2,4-dioxo-1,3-diazinan-1-yl)-5-fluoro-1-methyl-1H-indol-2-yl]piperidin-1-yl}methyl)piperidin-1-yl]phenyl}piperidin-1-yl]-1H-indazole-3-carbonitrile], in assay [1], the DC50 stood at 6 nM and the Dmax worked out at 108%. In assay [2], the DC50 is 8 nM and the Dmax worked out at 104%.

Take `Cn1c(C2CCN(CC3CCN(c4ccc([C@@H]5CCCN(c6ccc(Cl)c7c(C#N)n[nH]c67)C5)cc4)CC3)CC2)cc2cc(F)c(N3CCC(=O)NC3=O)cc21` [Example 139, 4-Chloro-7-[(3S)-3-{4-[4-({4-[6-(2,4-dioxo-1,3-diazinan-1-yl)-5-fluoro-1-methyl-1H-indol-2-yl]piperidin-1-yl}methyl)piperidin-1-yl]phenyl}piperidin-1-yl]-1H-indazole-3-carbonitrile]: in assay [1], the DC50 was found to be 16 nM and the Dmax was 107%. In assay [2], the DC50 worked out at 10 nM and the Dmax worked out at 105%.

Consider `Cn1c(C2CCN(CC3CCN(c4ccc(C5CCN(c6ccc(F)c7c(C#N)n[nH]c67)CC5)cc4)CC3)CC2)cc2ccc(N3CCC(=O)NC3=O)cc21` [Example 140, 7-(4-{4-[4-({4-[6-(2,4-Dioxo-1,3-diazinan-1-yl)-1-methyl-1H-indol-2-yl]piperidin-1-yl}methyl)piperidin-1-yl]phenyl}piperidin-1-yl)-4-fluoro-1H-indazole-3-carbonitrile], for which, in assay [1], the DC50 turned out to be 14 nM and the Dmax was determined as 56%. In addition, in assay [2], half-maximal degradation (DC50) was put at 7 nM and the Dmax stood at 88%.

For `Cc1cc2c(N3CCC(=O)NC3=O)cccc2n1C1CCN(CC2CCN(c3ccc(C4CCN(c5ccc(F)c6c(C#N)c[nH]c56)CC4)cc3)CC2)CC1` [Example 141, 7-(4-{4-[4-({4-[4-(2,4-Dioxo-1,3-diazinan-1-yl)-2-methyl-1H-indol-1-yl]piperidin-1-yl}methyl)piperidin-1-yl]phenyl}piperidin-1-yl)-4-fluoro-1H-indole-3-carbonitrile], in assay [1], half-maximal degradation (DC50) was put at 23 nM and the Dmax was determined as 105%. In assay [2], the DC50 was found to be 21 nM and the Dmax was found to be 95%.

For `N#Cc1c[nH]c2c(N3CCC(c4ccc(N5CC6(CCC(CN7CCC(n8ccc9c(N%10CCC(=O)NC%10=O)cccc98)CC7)CC6)C5)cc4)CC3)ccc(Cl)c12` [Example 142, 4-Chloro-7-(4-{4-[7-({4-[4-(2,4-dioxo-1,3-diazinan-1-yl)-1H-indol-1-yl]piperidin-1-yl}methyl)-2-azaspiro[3.5]nonan-2-yl]phenyl}piperidin-1-yl)-1H-indole-3-carbonitrile], the DC50 came out at 45 nM in assay [1] and 25 nM in assay [2]. Moreover, the Dmax in assay [1] was 109%; in assay [2], 106%.

As for `COc1nc(N2CCN(CC3CCN(c4ccc(C5CCN(c6ccc(Cl)c7c(C#N)n[nH]c67)CC5)cc4)CC3)CC2)cc2c1C(=O)N(C1CCC(=O)NC1=O)C2` (stereo not drawn) [Example 143, 4-Chloro-7-(4-{4-[4-({4-[2-(2,6-dioxopiperidin-3-yl)-4-methoxy-3-oxo-2,3-dihydro-1H-pyrrolo[3,4-c]pyridin-6-yl]piperazin-1-yl}methyl)piperidin-1-yl]phenyl}piperidin-1-yl)-1H-indazole-3-carbonitrile], in assay [1], half-maximal degradation (DC50) was put at 67 nM and the Dmax stood at 104%. Besides, in assay [2], half-maximal degradation (DC50) was put at 37 nM and the Dmax is 101%.

Regarding `COc1nc(N2CCN(CC3CCN(c4ccc(C5CCN(c6ccc(F)c7c(C#N)n[nH]c67)CC5)cc4)CC3)CC2)cc2c1C(=O)N(C1CCC(=O)NC1=O)C2` (stereo not drawn) [Example 144, 7-(4-{4-[4-({4-[2-(2,6-Dioxopiperidin-3-yl)-4-methoxy-3-oxo-2,3-dihydro-1H-pyrrolo[3,4-c]pyridin-6-yl]piperazin-1-yl}methyl)piperidin-1-yl]phenyl}piperidin-1-yl)-4-fluoro-1H-indazole-3-carbonitrile], the DC50 in assay [1] was found to be 95 nM; in assay [2], 21 nM. Also, the results for the Dmax in assay [1] and in assay [2] were 75% and 97%, respectively.

Take `N#Cc1n[nH]c2c(N3CCC(c4ccc(N5CCC(CN6CCN(c7ccc8c(c7)CN(C7CCC(=O)NC7=O)C8=O)CC6)CC5)cc4)CC3)ccc(F)c12` (stereo not drawn) [Example 145, 7-(4-{4-[4-({4-[2-(2,6-Dioxopiperidin-3-yl)-1-oxo-2,3-dihydro-1H-isoindol-5-yl]piperazin-1-yl}methyl)piperidin-1-yl]phenyl}piperidin-1-yl)-4-fluoro-1H-indazole-3-carbonitrile]: in assay [1], the DC50 was 40 nM and the Dmax was 70%. In assay [2], the DC50 was determined as 9 nM and the Dmax turned out to be 98%.

For the molecule `N#Cc1n[nH]c2c(N3CCC(c4ccc(N5CCC(CN6CCC(n7ccc8c(N9CCC(=O)NC9=O)cccc87)CC6)CC5)cc4)CC3)ccc(Cl)c12` [Example 146, 4-Chloro-7-(4-{4-[4-({4-[4-(2,4-dioxo-1,3-diazinan-1-yl)-1H-indol-1-yl]piperidin-1-yl}methyl)piperidin-1-yl]phenyl}piperidin-1-yl)-1H-indazole-3-carbonitrile], in assay [1], the DC50 was 38 nM and the Dmax came to 102%. In assay [2], the DC50 was 27 nM and the Dmax was 100%.

With `N#Cc1n[nH]c2c(N3CCC(c4ccc(N5CCC(CN6CCC(n7ccc8c(N9CCC(=O)NC9=O)cccc87)CC6)CC5)cc4)CC3)ccc(F)c12` [Example 147, 7-(4-{4-[4-({4-[4-(2,4-Dioxo-1,3-diazinan-1-yl)-1H-indol-1-yl]piperidin-1-yl}methyl)piperidin-1-yl]phenyl}piperidin-1-yl)-4-fluoro-1H-indazole-3-carbonitrile], the DC50 in assay [1] worked out at 38 nM; in assay [2], 6 nM. The Dmax in assay [1] amounted to 96%; in assay [2], 102%.
